Test results from ChEMBL document CHEMBL4715874, “In Vivo Screening of Xanthones from Garcinia oligantha Identified Oliganthin H as a Novel Natural Inhibitor of Convulsions” (J Nat Prod, 2020).

Key:
Danio rerio [1] = species: Danio rerio; experiment: Anticonvulsant activity in AB zebra fish larvae assessed as PTZ-induced BDNF mRNA expression at 25 uM pretreated for 6 hrs followed by PTZ-stimulation and measured after 30 mins by qRT-PCR analysis (reference value: 11.41 +/- 1.09%); assay type: functional; settings: time 6.5 hrs
[2] = Toxicity in AB zebra fish larvae assessed as mortality at 100 uM after 6 hrs; parameters: species or system Danio rerio; settings: zebrafish
Danio rerio [3] = species: Danio rerio; experiment: Anticonvulsant activity in AB zebra fish larvae assessed as PTZ-induced GLULA mRNA expression at 25 uM pretreated for 6 hrs followed by PTZ-stimulation and measured after 30 mins by qRT-PCR analysis (reference value: 5.44 +/- 0.55%); assay type: functional; settings: time 6.5 hrs
Danio rerio [4] = species: Danio rerio; experiment: Anticonvulsant activity in AB zebra fish larvae assessed as PTZ-induced glud1a mRNA expression at 25 uM pretreated for 6 hrs followed by PTZ-stimulation and measured after 30 mins by qRT-PCR analysis (reference value: 1.67 +/- 0.4%); assay type: functional; settings: time 6.5 hrs
Danio rerio [5] = species: Danio rerio; experiment: Anticonvulsant activity in AB zebra fish larvae assessed as PTZ-induced PYYA mRNA expression at 25 uM pretreated for 6 hrs followed by PTZ-stimulation and measured after 30 mins by qRT-PCR analysis (reference value: 18.53 +/- 4.32%); assay type: functional; settings: time 6.5 hrs
Danio rerio [6] = species: Danio rerio; experiment: Anticonvulsant activity in AB zebra fish larvae assessed as PTZ-induced npas4a mRNA expression at 25 uM pretreated for 6 hrs followed by PTZ-stimulation and measured after 30 mins by qRT-PCR analysis (reference value: 25.34 +/- 3.28%); assay type: functional; settings: time 6.5 hrs
Danio rerio [7] = species: Danio rerio; experiment: Anticonvulsant activity in AB zebra fish larvae assessed as PTZ-induced calb2 mRNA expression at 25 uM pretreated for 6 hrs followed by PTZ-stimulation and measured after 30 mins by qRT-PCR analysis (reference value: 0.88 +/- 0.39%); assay type: functional; settings: time 6.5 hrs
Danio rerio [8] = species: Danio rerio; experiment: Anticonvulsant activity in AB zebra fish larvae assessed as PTZ-induced gat1 mRNA expression at 25 uM pretreated for 6 hrs followed by PTZ-stimulation and measured after 30 mins by qRT-PCR analysis (reference value: 1.63 +/- 0.28%); assay type: functional; settings: time 6.5 hrs
[9] = Effect of GLSA mRNA expression in AB zebra fish larvae at 25 uM after 6 hrs by qRT-PCR analysis (reference value: 1 +/- 0.18%); assay type: ADME, Danio rerio; settings: zebrafish
[10] = Effect of calb2 mRNA expression in AB zebra fish larvae at 25 uM after 6 hrs by qRT-PCR analysis (reference value: 1.02 +/- 0.33%); assay type: ADME, Danio rerio; settings: zebrafish
Danio rerio [11] = species: Danio rerio; experiment: Anticonvulsant activity in AB zebra fish larvae assessed as PTZ-induced number of burst at 12.5 uM pretreated for 6 hrs followed by PTZ-stimulation and measured every 5 mins for 30 mins (reference value: 9.25 +/- 6.36); assay type: functional; settings: time 6.5 hrs
[12] = Effect of ABAT mRNA expression in AB zebra fish larvae at 25 uM after 6 hrs by qRT-PCR analysis (reference value: 1 +/- 0.11%); assay type: ADME, Danio rerio; settings: zebrafish
[13] = Effect of gad1 mRNA expression in AB zebra fish larvae at 25 uM after 6 hrs by qRT-PCR analysis (reference value: 1 +/- 0.11%); assay type: ADME, Danio rerio; settings: zebrafish
Danio rerio [14] = species: Danio rerio; experiment: Anticonvulsant activity in AB zebra fish larvae assessed as reduction in PTZ-induced convulsant behavior by measuring swimming distance at 12.5 uM pretreated for 6 hrs followed by PTZ-stimulation and measured every 5 mins for 1 hr relative to control; assay type: functional; parameters: scale not given: the % may be the effect or the level left; settings: time 7 hrs
Danio rerio [15] = species: Danio rerio; experiment: Anticonvulsant activity in AB zebra fish larvae assessed as PTZ-induced GLSA mRNA expression at 25 uM pretreated for 6 hrs followed by PTZ-stimulation and measured after 30 mins by qRT-PCR analysis (reference value: 3.4 +/- 0.5%); assay type: functional; settings: time 6.5 hrs
Danio rerio [16] = species: Danio rerio; experiment: Anticonvulsant activity in AB zebra fish larvae assessed as reduction in PTZ-induced convulsant behavior by measuring lowest observed effect concentration pretreated for 6 hrs followed by PTZ-stimulation and measured every 5 mins for 1 hr; assay type: functional; settings: time 7 hrs
Danio rerio [17] = species: Danio rerio; experiment: Anticonvulsant activity in AB zebra fish larvae assessed as PTZ-induced seizure activity at 6.2 uM pretreated for 6 hrs followed by PTZ-stimulation and measured every 5 mins for 30 mins (reference value: 14.13 +/- 0.004 mm); assay type: functional; settings: time 6.5 hrs
Danio rerio [18] = species: Danio rerio; experiment: Anticonvulsant activity in AB zebra fish larvae assessed as PTZ-induced number of burst at 25 uM pretreated for 6 hrs followed by PTZ-stimulation and measured every 5 mins for 30 mins (reference value: 9.25 +/- 6.36); assay type: functional; settings: time 6.5 hrs
Danio rerio [19] = species: Danio rerio; experiment: Anticonvulsant activity in AB zebra fish larvae assessed as PTZ-induced ABAT mRNA expression at 25 uM pretreated for 6 hrs followed by PTZ-stimulation and measured after 30 mins by qRT-PCR analysis (reference value: 2.16 +/- 1.2%); assay type: functional; settings: time 6.5 hrs
[20] = Neurotoxicity in AB zebra fish larvae assessed as increase in total swimming distance at > 12.5 uM after 6 hrs; assay type: toxicity, Danio rerio; settings: zebrafish
Danio rerio [21] = species: Danio rerio; experiment: Anticonvulsant activity in AB zebra fish larvae assessed as PTZ-induced seizure activity at 25 uM pretreated for 6 hrs followed by PTZ-stimulation and measured every 5 mins for 30 mins (reference value: 14.13 +/- 0.004 mm); assay type: functional; settings: time 6.5 hrs
Danio rerio [22] = species: Danio rerio; experiment: Anticonvulsant activity in AB zebra fish larvae assessed as PTZ-induced seizure duration time at 12.5 uM pretreated for 6 hrs followed by PTZ-stimulation and measured every 5 mins for 30 mins (reference value: 0.32 +/- 0.31 s); assay type: functional; settings: time 6.5 hrs
[23] = Effect of npas4a mRNA expression in AB zebra fish larvae at 25 uM after 6 hrs by qRT-PCR analysis (reference value: 1.04 +/- 0.41%); assay type: ADME, Danio rerio; settings: zebrafish
[24] = Effect of PRKACAB mRNA expression in AB zebra fish larvae at 25 uM after 6 hrs by qRT-PCR analysis (reference value: 1 +/- 0.03%); assay type: ADME, Danio rerio; settings: zebrafish
Danio rerio [25] = species: Danio rerio; experiment: Anticonvulsant activity in AB zebra fish larvae assessed as PTZ-induced number of burst at 6.2 uM pretreated for 6 hrs followed by PTZ-stimulation and measured every 5 mins for 30 mins (reference value: 9.25 +/- 6.36); assay type: functional; settings: time 6.5 hrs

Compound: CC(C)=CCC/C(C)=C/C[C@@]1(CC=C(C)C)C(=O)C(O)=C(O)c2oc3c4c(cc(O)c3c(=O)c21)OC(C)(C)C=C4
- Activity (Danio rerio [1]): 1.32%
- Activity [2]: Toxic
- Activity (Danio rerio [3]): 1.61%
- Activity (Danio rerio [4]): 1.24%
- Activity (Danio rerio [5]): 1.09%
- Activity (Danio rerio [6]): 0.89%
- Activity (Danio rerio [7]): 0.97%
- Activity (Danio rerio [8]): 1.13%
- Activity [9]: 0.78%
- Activity [10]: 0.86%
- Activity (Danio rerio [11]): 153.5
- Activity [12]: 0.7%
- Activity [13]: 1.31%
- Activity (Danio rerio [14]): 25%
- Activity (Danio rerio [15]): 0.92%
- Activity (Danio rerio [16]): 12.5 µM
- Activity (Danio rerio [17]): 1210 mm
- Activity (Danio rerio [18]): 142.3
- Activity (Danio rerio [19]): 0.53%
- Activity [20]: Toxic
- Activity (Danio rerio [21]): 557.9 mm
- Time (Danio rerio [22]): 8.18 s
- Activity [23]: 1.95%
- Activity [24]: 0.9%
- Activity (Danio rerio [25]): 287.3
